Measurements from the kinase profiling compilation of Christmann-Franck et al. (2016).

Assays:
Test in all cases: KINOMEscan competition binding
Conditions in all cases: compound 10.0 µM
DAPK3 (human) = DAPK3 (human) (UniProt O43293)
ROCK2 (human) = ROCK2 (human) (UniProt O75116)
FGFR3 (human) = FGFR3 (human) (UniProt P22607)
MAP3K4 (human) = MAP3K4 (human) (UniProt Q9Y6R4)
CDK4 CCND1 (human) = CDK4 CCND1 (human) (UniProt P11802+P24385)
ULK1 (human) = ULK1 (human) (UniProt O75385)
MAP4K3 (human) = MAP4K3 (human) (UniProt Q8IVH8)
PIM3 (human) = PIM3 (human) (UniProt Q86V86)
PRKCD (human) = PRKCD (human) (UniProt Q05655)
SNRK (human) = SNRK (human) (UniProt Q9NRH2)
MAP2K1 (human) = MAP2K1 (human) (UniProt Q02750)
GSK3B (human) = GSK3B (human) (UniProt P49841)
BLK (human) = BLK (human) (UniProt P51451)
HIPK1 (human) = HIPK1 (human) (UniProt Q86Z02)
CHEK1 (human) = CHEK1 (human) (UniProt O14757)
EPHB2 (human) = EPHB2 (human) (UniProt P29323)
TNNI3K (human) = TNNI3K (human) (UniProt Q59H18)
LATS2 (human) = LATS2 (human) (UniProt Q9NRM7)
MAPK7 (human) = MAPK7 (human) (UniProt Q13164)
WEE2 (human) = WEE2 (human) (UniProt P0C1S8)
PLK3 (human) = PLK3 (human) (UniProt Q9H4B4)
[1] = tested on: EGFR (human), P00533 [747-751 del / S ins]
EPHA5 (human) = EPHA5 (human) (UniProt P54756)
ERN1 (human) = ERN1 (human) (UniProt O75460)
PRKD1 (human) = PRKD1 (human) (UniProt Q15139)
MKNK1 (human) = MKNK1 (human) (UniProt Q9BUB5)
KDR (human) = KDR (human) (UniProt P35968)
BMPR1B (human) = BMPR1B (human) (UniProt O00238)
TNK1 (human) = TNK1 (human) (UniProt Q13470)
CAMK1G (human) = CAMK1G (human) (UniProt Q96NX5)
ULK3 (human) = ULK3 (human) (UniProt Q6PHR2)
PKN1 (human) = PKN1 (human) (UniProt Q16512)
RAF1 (human) = RAF1 (human) (UniProt P04049)
CLK1 (human) = CLK1 (human) (UniProt P49759)
PAK4 (human) = PAK4 (human) (UniProt O96013)
PTK2 (human) = PTK2 (human) (UniProt Q05397)
DCLK2 (human) = DCLK2 (human) (UniProt Q8N568)
CSNK1G3 (human) = CSNK1G3 (human) (UniProt Q9Y6M4)
MAPK10 (human) = MAPK10 (human) (UniProt P53779)
CDK13 (human) = CDK13 (human) (UniProt Q14004)

HIPK1 (human), sequence (Q86Z02 whole entry, looked up): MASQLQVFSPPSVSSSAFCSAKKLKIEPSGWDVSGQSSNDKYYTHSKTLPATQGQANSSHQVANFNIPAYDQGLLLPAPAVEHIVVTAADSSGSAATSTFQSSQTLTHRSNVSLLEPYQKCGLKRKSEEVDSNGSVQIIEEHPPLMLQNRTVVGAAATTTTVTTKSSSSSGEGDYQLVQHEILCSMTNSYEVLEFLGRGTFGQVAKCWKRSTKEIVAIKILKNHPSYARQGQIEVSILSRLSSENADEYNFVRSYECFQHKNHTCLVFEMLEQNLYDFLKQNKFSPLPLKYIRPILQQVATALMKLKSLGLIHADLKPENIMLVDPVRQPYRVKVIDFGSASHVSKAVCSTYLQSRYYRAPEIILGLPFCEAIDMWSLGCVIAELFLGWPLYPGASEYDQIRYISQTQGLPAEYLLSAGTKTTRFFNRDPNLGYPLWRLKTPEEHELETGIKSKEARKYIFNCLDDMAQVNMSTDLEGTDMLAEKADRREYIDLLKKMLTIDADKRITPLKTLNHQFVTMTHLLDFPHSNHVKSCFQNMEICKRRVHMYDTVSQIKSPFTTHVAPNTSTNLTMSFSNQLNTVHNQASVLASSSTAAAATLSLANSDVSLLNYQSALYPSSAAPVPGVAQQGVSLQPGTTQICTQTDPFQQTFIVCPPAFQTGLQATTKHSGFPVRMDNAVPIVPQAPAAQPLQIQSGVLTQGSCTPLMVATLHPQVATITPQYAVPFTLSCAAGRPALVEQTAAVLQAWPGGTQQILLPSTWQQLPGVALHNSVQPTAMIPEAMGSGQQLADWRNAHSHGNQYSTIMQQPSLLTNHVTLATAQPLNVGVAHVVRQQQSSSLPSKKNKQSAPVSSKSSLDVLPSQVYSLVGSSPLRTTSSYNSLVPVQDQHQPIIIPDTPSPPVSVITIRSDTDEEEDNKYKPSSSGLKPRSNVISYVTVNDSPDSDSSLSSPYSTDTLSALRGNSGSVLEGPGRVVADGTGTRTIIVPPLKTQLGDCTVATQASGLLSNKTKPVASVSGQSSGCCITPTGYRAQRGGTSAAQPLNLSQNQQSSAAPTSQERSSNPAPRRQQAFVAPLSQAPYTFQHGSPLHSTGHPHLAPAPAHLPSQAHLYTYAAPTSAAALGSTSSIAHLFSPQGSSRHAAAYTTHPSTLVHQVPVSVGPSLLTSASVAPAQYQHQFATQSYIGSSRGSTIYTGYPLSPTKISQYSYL
CHEK1 (human), sequence (O14757 whole entry, looked up): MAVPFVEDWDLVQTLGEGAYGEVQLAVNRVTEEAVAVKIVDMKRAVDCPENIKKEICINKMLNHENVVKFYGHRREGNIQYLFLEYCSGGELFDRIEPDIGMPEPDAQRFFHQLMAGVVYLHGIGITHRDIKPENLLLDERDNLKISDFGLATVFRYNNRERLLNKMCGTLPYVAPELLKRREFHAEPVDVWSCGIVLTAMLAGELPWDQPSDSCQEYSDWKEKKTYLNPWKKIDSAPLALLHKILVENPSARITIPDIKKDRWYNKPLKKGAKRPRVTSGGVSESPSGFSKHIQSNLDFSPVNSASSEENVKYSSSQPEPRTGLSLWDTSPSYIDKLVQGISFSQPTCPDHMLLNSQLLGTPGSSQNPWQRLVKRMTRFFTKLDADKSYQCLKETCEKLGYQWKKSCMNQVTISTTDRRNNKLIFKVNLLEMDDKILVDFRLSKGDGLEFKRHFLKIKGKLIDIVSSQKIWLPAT
PRKD1 (human), sequence (Q15139 whole entry, looked up): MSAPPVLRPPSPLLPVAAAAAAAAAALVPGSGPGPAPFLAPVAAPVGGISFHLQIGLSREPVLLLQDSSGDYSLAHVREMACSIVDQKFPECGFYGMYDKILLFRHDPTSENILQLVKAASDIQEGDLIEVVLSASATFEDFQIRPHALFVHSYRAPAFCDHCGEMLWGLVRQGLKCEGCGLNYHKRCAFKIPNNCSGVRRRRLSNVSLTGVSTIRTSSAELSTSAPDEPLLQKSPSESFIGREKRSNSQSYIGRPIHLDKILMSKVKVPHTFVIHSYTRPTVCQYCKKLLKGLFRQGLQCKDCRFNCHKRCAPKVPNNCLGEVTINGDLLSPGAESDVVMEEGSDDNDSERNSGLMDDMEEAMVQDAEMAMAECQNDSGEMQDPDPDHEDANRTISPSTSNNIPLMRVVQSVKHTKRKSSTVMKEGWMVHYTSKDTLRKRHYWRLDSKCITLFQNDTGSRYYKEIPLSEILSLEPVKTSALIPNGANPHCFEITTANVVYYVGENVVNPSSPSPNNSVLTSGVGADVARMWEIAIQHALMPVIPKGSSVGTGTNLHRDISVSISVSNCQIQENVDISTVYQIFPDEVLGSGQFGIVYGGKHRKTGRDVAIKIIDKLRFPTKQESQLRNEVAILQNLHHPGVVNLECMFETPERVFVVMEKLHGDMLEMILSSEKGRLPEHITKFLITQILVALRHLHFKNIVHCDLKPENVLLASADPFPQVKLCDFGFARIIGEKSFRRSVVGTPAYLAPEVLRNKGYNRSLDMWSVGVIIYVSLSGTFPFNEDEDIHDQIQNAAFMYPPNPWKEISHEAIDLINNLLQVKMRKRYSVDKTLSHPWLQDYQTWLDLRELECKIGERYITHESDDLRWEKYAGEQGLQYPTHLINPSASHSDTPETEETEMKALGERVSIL
EPHA5 (human), sequence (P54756 whole entry, looked up): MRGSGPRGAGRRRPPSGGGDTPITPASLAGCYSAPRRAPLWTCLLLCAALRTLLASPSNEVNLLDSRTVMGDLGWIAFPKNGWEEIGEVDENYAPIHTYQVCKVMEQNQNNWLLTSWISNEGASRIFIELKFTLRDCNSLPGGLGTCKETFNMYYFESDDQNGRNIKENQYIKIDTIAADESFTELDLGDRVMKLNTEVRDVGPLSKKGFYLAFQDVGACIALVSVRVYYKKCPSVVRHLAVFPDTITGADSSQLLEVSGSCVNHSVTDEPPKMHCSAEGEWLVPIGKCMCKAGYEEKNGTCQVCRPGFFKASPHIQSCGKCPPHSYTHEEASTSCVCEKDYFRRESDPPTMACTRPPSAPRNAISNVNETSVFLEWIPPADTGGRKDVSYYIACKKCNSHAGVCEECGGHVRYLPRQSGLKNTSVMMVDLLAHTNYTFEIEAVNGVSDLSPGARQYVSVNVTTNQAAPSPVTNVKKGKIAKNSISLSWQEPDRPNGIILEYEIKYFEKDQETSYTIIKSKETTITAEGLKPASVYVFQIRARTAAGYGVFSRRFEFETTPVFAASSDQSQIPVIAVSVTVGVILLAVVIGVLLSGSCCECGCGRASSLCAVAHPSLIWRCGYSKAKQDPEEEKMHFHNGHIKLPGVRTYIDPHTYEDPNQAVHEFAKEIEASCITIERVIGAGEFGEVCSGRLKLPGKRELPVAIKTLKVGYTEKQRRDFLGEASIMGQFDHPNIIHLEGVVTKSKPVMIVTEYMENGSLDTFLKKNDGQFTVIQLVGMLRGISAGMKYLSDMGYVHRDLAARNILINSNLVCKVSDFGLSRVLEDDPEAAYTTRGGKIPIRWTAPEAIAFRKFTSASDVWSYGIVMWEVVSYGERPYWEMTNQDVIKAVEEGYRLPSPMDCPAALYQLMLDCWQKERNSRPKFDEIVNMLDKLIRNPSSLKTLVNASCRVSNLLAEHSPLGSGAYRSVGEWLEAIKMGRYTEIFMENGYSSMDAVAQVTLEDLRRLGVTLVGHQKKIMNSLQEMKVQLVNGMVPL
RAF1 (human), sequence (P04049 whole entry, looked up): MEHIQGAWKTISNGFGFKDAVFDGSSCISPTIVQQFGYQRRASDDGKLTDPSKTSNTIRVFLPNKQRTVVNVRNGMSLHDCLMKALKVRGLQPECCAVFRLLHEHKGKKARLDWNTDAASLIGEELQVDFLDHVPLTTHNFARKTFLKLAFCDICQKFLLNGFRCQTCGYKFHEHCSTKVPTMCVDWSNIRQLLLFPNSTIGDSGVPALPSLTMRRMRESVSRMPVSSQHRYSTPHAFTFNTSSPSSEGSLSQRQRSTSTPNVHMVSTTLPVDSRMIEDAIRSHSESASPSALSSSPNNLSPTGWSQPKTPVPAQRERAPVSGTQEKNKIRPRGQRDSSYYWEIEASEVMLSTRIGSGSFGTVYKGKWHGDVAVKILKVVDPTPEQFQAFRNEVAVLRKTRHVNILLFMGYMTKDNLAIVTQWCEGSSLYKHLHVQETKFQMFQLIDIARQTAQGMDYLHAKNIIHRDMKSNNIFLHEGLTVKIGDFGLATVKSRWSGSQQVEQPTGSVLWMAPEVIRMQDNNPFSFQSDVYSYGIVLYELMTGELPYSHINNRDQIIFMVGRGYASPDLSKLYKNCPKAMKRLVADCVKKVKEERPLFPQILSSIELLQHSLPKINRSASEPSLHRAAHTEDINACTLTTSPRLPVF
TNK1 (human), sequence (Q13470 whole entry, looked up): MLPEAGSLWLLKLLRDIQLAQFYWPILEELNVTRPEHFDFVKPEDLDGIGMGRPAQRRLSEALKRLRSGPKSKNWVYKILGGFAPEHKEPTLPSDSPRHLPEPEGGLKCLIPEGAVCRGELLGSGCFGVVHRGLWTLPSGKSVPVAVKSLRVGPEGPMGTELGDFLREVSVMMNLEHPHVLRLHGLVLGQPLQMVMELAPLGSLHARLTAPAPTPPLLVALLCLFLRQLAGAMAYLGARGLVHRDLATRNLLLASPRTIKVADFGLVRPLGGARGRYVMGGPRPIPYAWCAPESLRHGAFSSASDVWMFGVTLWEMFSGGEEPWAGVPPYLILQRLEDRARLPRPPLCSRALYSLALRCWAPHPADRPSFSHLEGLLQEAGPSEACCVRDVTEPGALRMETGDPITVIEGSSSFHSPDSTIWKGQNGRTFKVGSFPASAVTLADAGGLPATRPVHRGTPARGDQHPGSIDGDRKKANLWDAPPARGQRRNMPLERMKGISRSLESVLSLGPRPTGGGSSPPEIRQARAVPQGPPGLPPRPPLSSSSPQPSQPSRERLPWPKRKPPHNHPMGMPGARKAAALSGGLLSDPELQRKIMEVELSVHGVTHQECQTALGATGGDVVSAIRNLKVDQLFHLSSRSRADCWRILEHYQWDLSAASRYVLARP

Compound: NC(=O)Nc1cc(-c2cccc(F)c2)sc1C(=O)N[C@@H]1CCCNC1
- kinase still bound, per cent of control (DAPK3 (human)): 2.9%
- kinase still bound, per cent of control (ROCK2 (human)): 0.2%
- kinase still bound, per cent of control (FGFR3 (human)): 16%
- kinase still bound, per cent of control (MAP3K4 (human)): 42%
- kinase still bound, per cent of control (CDK4 CCND1 (human)): 75%
- kinase still bound, per cent of control (ULK1 (human)): 0%
- kinase still bound, per cent of control (MAP4K3 (human)): 0.35%
- kinase still bound, per cent of control (PIM3 (human)): 15%
- kinase still bound, per cent of control (PRKCD (human)): 0.65%
- kinase still bound, per cent of control (SNRK (human)): 2.6%
- kinase still bound, per cent of control (MAP2K1 (human)): 0%
- kinase still bound, per cent of control (GSK3B (human)): 41%
- kinase still bound, per cent of control (BLK (human)): 0%
- kinase still bound, per cent of control (HIPK1 (human)): 7.2%
- kinase still bound, per cent of control (CHEK1 (human)): 0.25%
- kinase still bound, per cent of control (EPHB2 (human)): 9.6%
- kinase still bound, per cent of control (TNNI3K (human)): 7.3%
- kinase still bound, per cent of control (LATS2 (human)): 2%
- kinase still bound, per cent of control (MAPK7 (human)): 80%
- kinase still bound, per cent of control (WEE2 (human)): 91%
- kinase still bound, per cent of control (PLK3 (human)): 39%
- kinase still bound, per cent of control [1]: 2.4%
- kinase still bound, per cent of control (EPHA5 (human)): 4.8%
- kinase still bound, per cent of control (ERN1 (human)): 25%
- kinase still bound, per cent of control (PRKD1 (human)): 0.3%
- kinase still bound, per cent of control (MKNK1 (human)): 6%
- kinase still bound, per cent of control (KDR (human)): 0.05%
- kinase still bound, per cent of control (BMPR1B (human)): 0.1%
- kinase still bound, per cent of control (TNK1 (human)): 1.4%
- kinase still bound, per cent of control (CAMK1G (human)): 6.2%
- kinase still bound, per cent of control (ULK3 (human)): 0%
- kinase still bound, per cent of control (PKN1 (human)): 0%
- kinase still bound, per cent of control (RAF1 (human)): 100%
- kinase still bound, per cent of control (CLK1 (human)): 1.2%
- kinase still bound, per cent of control (PAK4 (human)): 1.2%
- kinase still bound, per cent of control (PTK2 (human)): 0.1%
- kinase still bound, per cent of control (DCLK2 (human)): 2.4%
- kinase still bound, per cent of control (CSNK1G3 (human)): 4.6%
- kinase still bound, per cent of control (MAPK10 (human)): 63%
- kinase still bound, per cent of control (CDK13 (human)): 100%

Compound: O=c1cc(N2CCOCC2)oc2c(-c3cccc4c3sc3ccccc34)cccc12
- kinase still bound, per cent of control (DAPK3 (human)): 92%
- kinase still bound, per cent of control (ROCK2 (human)): 100%
- kinase still bound, per cent of control (FGFR3 (human)): 80%
- kinase still bound, per cent of control (MAP3K4 (human)): 100%
- kinase still bound, per cent of control (CDK4 CCND1 (human)): 100%
- kinase still bound, per cent of control (ULK1 (human)): 41%
- kinase still bound, per cent of control (MAP4K3 (human)): 76%
- kinase still bound, per cent of control (PIM3 (human)): 65%
- kinase still bound, per cent of control (PRKCD (human)): 80%
- kinase still bound, per cent of control (SNRK (human)): 73%
- kinase still bound, per cent of control (MAP2K1 (human)): 76%
- kinase still bound, per cent of control (GSK3B (human)): 44%
- kinase still bound, per cent of control (BLK (human)): 100%
- kinase still bound, per cent of control (HIPK1 (human)): 93%
- kinase still bound, per cent of control (CHEK1 (human)): 100%
- kinase still bound, per cent of control (EPHB2 (human)): 91%
- kinase still bound, per cent of control (TNNI3K (human)): 86%
- kinase still bound, per cent of control (LATS2 (human)): 100%
- kinase still bound, per cent of control (MAPK7 (human)): 100%
- kinase still bound, per cent of control (WEE2 (human)): 100%
- kinase still bound, per cent of control (PLK3 (human)): 86%
- kinase still bound, per cent of control [1]: 100%
- kinase still bound, per cent of control (EPHA5 (human)): 100%
- kinase still bound, per cent of control (ERN1 (human)): 93%
- kinase still bound, per cent of control (PRKD1 (human)): 98%
- kinase still bound, per cent of control (MKNK1 (human)): 100%
- kinase still bound, per cent of control (KDR (human)): 100%
- kinase still bound, per cent of control (BMPR1B (human)): 35%
- kinase still bound, per cent of control (TNK1 (human)): 100%
- kinase still bound, per cent of control (CAMK1G (human)): 85%
- kinase still bound, per cent of control (ULK3 (human)): 64%
- kinase still bound, per cent of control (PKN1 (human)): 100%
- kinase still bound, per cent of control (RAF1 (human)): 97%
- kinase still bound, per cent of control (CLK1 (human)): 89%
- kinase still bound, per cent of control (PAK4 (human)): 80%
- kinase still bound, per cent of control (PTK2 (human)): 70%
- kinase still bound, per cent of control (DCLK2 (human)): 100%
- kinase still bound, per cent of control (CSNK1G3 (human)): 100%
- kinase still bound, per cent of control (MAPK10 (human)): 100%
- kinase still bound, per cent of control (CDK13 (human)): 100%
